Assay results from patent publication US8378098B2, “Imidazol[1,2-α]quinoxalines and derivatives for the treatment of cancers” (Universite de Montpellier I, priority 2007, dated 2013).
Read-outs that look alike come from different tables or passages of the source.

Columns and labels:
A375 melanoma = experiment: in vitro cytotoxicity (antiproliferative activity) on A375 melanoma line; type: cell-based, human; conditions: for IC50: Homo sapiens, A-375
From the text: Antiproliferative activity was first measured on a cancer cell line of human origin, A375 melanoma.
Imiquimod and fotemustine (Muphoran®) are used as controls in this study.
Several human carcinoma cell lines were used: • Lines A375, M4Be, RPMI7591 from human melanoma. • Line LS174T from colon carcinoma. • Line A 2780 from ovarian carcinoma. • The Raji line from B lymphoma. • Line MCF7 from breast carcinoma.
IC50 (concentration of the product tested which inhibits 50% of the maximum cell proliferation observed in the control wells) is determined graphically from the curve of the percentage of cell proliferation as a function of concentration of the product tested.

M4Be human melanoma = experiment: anti-proliferative activity in vivo, M4Be human melanoma xenografted in athymic mice
Procedure: FIG. 1: Effects of fotemustine (20 mg/kg once per week for 3 weeks) and EAPB0203 (20 mg/kg twice per week for 3 weeks) on tumour growth in athymic Swiss mice xenografted with M4Be human melanoma cell line.
Δ, control; ▪, EAPB0203; ●, fotemustine. The data are the results of only one experiment carried out on six mice per group. The results are represented as mean±SEM.
In this study, data are presented relating to the activity of EAPB0203 on the volume of a type of human melanoma tumour model (M4Be lines), xenografted in athymic mice. This study required as a preliminary step several tests of grafts of human melanoma cell lines in athymic mice before establishing the adequate animal model. The in vivo study was performed following the in vitro experiments described previously.
The activity and specificity of EAPB0203 in vivo on tumour growth of human melanoma are evaluated by monitoring tumour development in mice carrying M4Be melanoma treated by administration of fotemustine and EAPB0203 at various doses.
For this study, 18 Swiss nude mice (3 groups of 6 mice) were used. M4Be cancer cells in suspension were injected subcutaneously into the right flank of each athymic Swiss nude female 7-week-old mouse weighing 20-22 g at the beginning of the protocol. The mice were then maintained in a sterile atmosphere and received aseptic food and water. The weight of the mouse and the growth of the tumour in three dimensions were recorded twice a week.
A first group of 6 mice (reference) will receive fotemustine by intra-peritoneal route at a dose of 20 mg/kg once per week for 3 weeks, beginning 7 days after inoculation at the time when the tumour will be visible and palpable. A second group of 6 mice will receive EAPB0203 at the same dose of 20 mg/kg via intra-peritoneal route but twice per week (40 mg/kg per week). The third group (control) of 6 mice will receive only the administration carrier. Tumour volume is calculated by the following formula: length X width X height X 0.52, and is expressed as mean±SEM mm^3.
For fotemustine and EAPB0203, the sequence of administrations is a treatment of three weeks, then two weeks without treatment, and then a second treatment of three weeks.

[1] = A375, comparison of IC50 values

## CNc1nc2ccccc2n2c(CCc3ccccc3)cnc12 [EAPB0203, N-methyl-1-(2-phenylethyl)imidazo[1,2-a]quinoxalin-4-amine]
A375 melanoma; [1]
  activity times higher than that of fotemustine: 110 times
  activity times higher than that of imiquimod: 50 times
A375 melanoma; A375 melanoma line, Table 1, IC50 and standard deviation, read-out: IC50
  IC50: 1570 nM
A375 melanoma; Table 2, unit inferred, read-out: IC50 A375
  IC50: 1570 ± 560 nM
M4Be human melanoma; 20 mg/kg twice per week, intra-peritoneal, mice carrying M4Be melanoma
  tolerance (weight, side effects): well tolerated without loss of weight or apparent side effects
M4Be human melanoma; EAPB0203 20 mg/kg twice per week i.p., FIG. 1
  tumour growth compared to control mice and fotemustine mice: significant delay in tumour growth
M4Be human melanoma; day 76, 20 mg/kg twice per week i.p.
  tumour volume of a remaining mouse when last fotemustine mice were euthanatized: less than 2 cm^3
